In brackets after ≈: the same amount, converted by molar mass.
Experiments:
Assay type in all cases: functional
[1] = test system: Mycobacterium tuberculosis; test: Antibacterial activity against Mycobacterium tuberculosis Rv44 harboring embB ATG-ATA (M306I) mutation in embB by modified conventional agar proportion method
[2] = test system: Mycobacterium tuberculosis; test: Antibacterial activity against Mycobacterium tuberculosis B64 harboring embB ATG-GTG (M306V) mutation in embB by modified conventional agar proportion method
[3] = test system: Mycobacterium tuberculosis; test: Antibacterial activity against Mycobacterium tuberculosis B56 harboring embB ATG-GTG (M306V) mutation in embB by modified conventional agar proportion method
[4] = test system: Mycobacterium tuberculosis; test: Antibacterial activity against Mycobacterium tuberculosis B52 harboring embB ATG-GTG (M306V) mutation in embB by modified conventional agar proportion method
[5] = test system: Mycobacterium tuberculosis; test: Antibacterial activity against Mycobacterium tuberculosis Rv23 harboring embB ATG-GTG (M306V) mutation in embB by modified conventional agar proportion method
[6] = test system: Mycobacterium tuberculosis; test: Antibacterial activity against Mycobacterium tuberculosis Rv17 harboring embB ATG-GTG (M306V) mutation in embB by modified conventional agar proportion method
[7] = test system: Mycobacterium tuberculosis; test: Antibacterial activity against Mycobacterium tuberculosis Rv8 harboring embB ATG-GTG (M306V) mutation in embB by modified conventional agar proportion method
[8] = test system: Mycobacterium tuberculosis; test: Antibacterial activity against Mycobacterium tuberculosis B59 harboring embB ATG-GTG (M306V) mutation in embB by modified conventional agar proportion method
[9] = test system: Mycobacterium tuberculosis; test: Antibacterial activity against Mycobacterium tuberculosis B55 harboring embB ATG-GTG (M306V) mutation in embB by modified conventional agar proportion method
[10] = test system: Mycobacterium tuberculosis; test: Antibacterial activity against Mycobacterium tuberculosis Rv18 harboring embB ATG-GTG (M306V) mutation in embB by modified conventional agar proportion method
[11] = test system: Mycobacterium tuberculosis; test: Antibacterial activity against Mycobacterium tuberculosis B74 harboring embB GAC-GGC (D300G) mutation in embB by modified conventional agar proportion method
[12] = test system: Mycobacterium tuberculosis; test: Antibacterial activity against Mycobacterium tuberculosis Rv7 harboring embB ATG-GTG (M306V) mutation in embB by modified conventional agar proportion method
[13] = test system: Mycobacterium tuberculosis; test: Antibacterial activity against Mycobacterium tuberculosis B54 harboring embB ATG-ATA (M306I) mutation in embB by modified conventional agar proportion method
[14] = test system: Mycobacterium tuberculosis; test: Antibacterial activity against Mycobacterium tuberculosis B85 harboring embB ATG-ATA (M306I) mutation in embB by modified conventional agar proportion method
[15] = test system: Mycobacterium tuberculosis; test: Antibacterial activity against Mycobacterium tuberculosis B95 harboring embB ATG-ATA (M306I) mutation in embB by modified conventional agar proportion method
[16] = test system: Mycobacterium tuberculosis; test: Antibacterial activity against Mycobacterium tuberculosis B84 harboring embB ATG-ATC (M306I) mutation in embB by modified conventional agar proportion method
[17] = test system: Mycobacterium tuberculosis; test: Antibacterial activity against Mycobacterium tuberculosis B97 harboring embB ATG-ATC (M306I) mutation in embB by modified conventional agar proportion method
[18] = test system: Mycobacterium tuberculosis; test: Antibacterial activity against Mycobacterium tuberculosis B70 harboring embB ATG-ATC (M306I) mutation in embB by modified conventional agar proportion method
[19] = test system: Mycobacterium tuberculosis; test: Antibacterial activity against Mycobacterium tuberculosis Rv11 harboring embB ATG-CTG (M306L) mutation in embB by modified conventional agar proportion method
[20] = test system: Mycobacterium tuberculosis; test: Antibacterial activity against Mycobacterium tuberculosis B51 harboring embB ATG-ACG (M306T) mutation in embB by modified conventional agar proportion method
[21] = test system: Mycobacterium tuberculosis; test: Antibacterial activity against Mycobacterium tuberculosis B99 harboring embB CGC-CAC (R321H) mutation in embB by modified conventional agar proportion method
[22] = test system: Mycobacterium tuberculosis; test: Antibacterial activity against Mycobacterium tuberculosis Rv39 harboring embB GGC-CGC (G324R) mutation in embB by modified conventional agar proportion method
[23] = test system: Mycobacterium tuberculosis; test: Antibacterial activity against Mycobacterium tuberculosis B79 harboring embB GGC-CGC (G324R) mutation in embB by modified conventional agar proportion method
[24] = test system: Mycobacterium tuberculosis; test: Antibacterial activity against Mycobacterium tuberculosis Rv21 harboring embB GAT-TAT (D328Y) mutation in embB by modified conventional agar proportion method
[25] = test system: Mycobacterium tuberculosis; test: Antibacterial activity against Mycobacterium tuberculosis Rv31 harboring embB GAT-TAT (D328Y) mutation in embB by modified conventional agar proportion method
[26] = test system: Mycobacterium tuberculosis; test: Antibacterial activity against Mycobacterium tuberculosis B53 harboring embB GAT-TAT (D328Y) mutation in embB by modified conventional agar proportion method
[27] = test system: Mycobacterium tuberculosis; test: Antibacterial activity against Mycobacterium tuberculosis B96 harboring embB GAT-TAT (D328Y) mutation in embB by modified conventional agar proportion method
[28] = test system: Mycobacterium tuberculosis; test: Antibacterial activity against Mycobacterium tuberculosis B92 harboring embB GAC-GCC (D354A) mutation in embB by modified conventional agar proportion method
[29] = test system: Mycobacterium tuberculosis; test: Antibacterial activity against HYG cassette-negative EMB-resistant Mycobacterium tuberculosis Rv8 harboring embB M306V mutant gene by modified conventional agar proportion method
[30] = test system: Mycobacterium tuberculosis; test: Antibacterial activity against HYG cassette-positive Mycobacterium tuberculosis Rv8102 harboring embB M306V mutant gene by modified conventional agar proportion method
[31] = test system: Mycobacterium tuberculosis; test: Antibacterial activity against HYG cassette-negative EMB-resistant Mycobacterium tuberculosis Rv44 harboring embB M306I mutant gene by modified conventional agar proportion method
[32] = test system: Mycobacterium tuberculosis; test: Antibacterial activity against HYG cassette-positive Mycobacterium tuberculosis Rv4402 harboring embB M306I mutant gene by modified conventional agar proportion method
[33] = test system: Mycobacterium tuberculosis; test: Antibacterial activity against HYG cassette-negative EMB-resistant Mycobacterium tuberculosis B52 harboring embB M306V mutant gene by modified conventional agar proportion method
[34] = test system: Mycobacterium tuberculosis; test: Antibacterial activity against HYG cassette-positive Mycobacterium tuberculosis B5202 harboring embB M306V mutant gene by modified conventional agar proportion method
[35] = test system: Mycobacterium tuberculosis; test: Antibacterial activity against HYG cassette-negative EMB-resistant Mycobacterium tuberculosis B54 harboring embB M306I mutant gene by modified conventional agar proportion method
[36] = test system: Mycobacterium tuberculosis; test: Antibacterial activity against HYG cassette-positive Mycobacterium tuberculosis B5402 harboring embB M306I mutant gene by modified conventional agar proportion method
[37] = test system: Mycobacterium tuberculosis; test: Antibacterial activity against HYG cassette-positive Mycobacterium tuberculosis RvAS1 harboring embB M306V mutant gene by modified conventional agar proportion method
[38] = test system: Mycobacterium tuberculosis; test: Antibacterial activity against HYG cassette-positive Mycobacterium tuberculosis RvAS2 harboring embB M306V mutant gene by modified conventional agar proportion method
[39] = test system: Mycobacterium tuberculosis; test: Antibacterial activity against HYG cassette-positive Mycobacterium tuberculosis RvAS3 harboring embB M306I mutant gene by modified conventional agar proportion method
[40] = test system: Mycobacterium tuberculosis; test: Antibacterial activity against HYG cassette-positive Mycobacterium tuberculosis RvAS4 harboring embB M306I mutant gene by modified conventional agar proportion method
[41] = test system: Mycobacterium tuberculosis; test: Antibacterial activity against HYG cassette-positive Mycobacterium tuberculosis BAS5 harboring embB M306V mutant gene by modified conventional agar proportion method
[42] = test system: Mycobacterium tuberculosis; test: Antibacterial activity against HYG cassette-positive Mycobacterium tuberculosis BAS6 harboring embB M306V mutant gene by modified conventional agar proportion method
[43] = test system: Mycobacterium tuberculosis; test: Antibacterial activity against HYG cassette-positive Mycobacterium tuberculosis BAS7 harboring embB M306I mutant gene by modified conventional agar proportion method
[44] = test system: Mycobacterium tuberculosis; test: Antibacterial activity against HYG cassette-positive Mycobacterium tuberculosis BAS8 harboring embB M306I mutant gene by modified conventional agar proportion method

CC[C@@H](CO)NCCN[C@@H](CC)CO [ETHAMBUTOL]
MIC [1]: 20 µg/mL (≈ 97.9 µM)
MIC [2]: 20 µg/mL (≈ 97.9 µM)
MIC [3]: 20 µg/mL (≈ 97.9 µM)
MIC [4]: 20 µg/mL (≈ 97.9 µM)
MIC [5]: 20 µg/mL (≈ 97.9 µM)
MIC [6]: 20 µg/mL (≈ 97.9 µM)
MIC [7]: 20 µg/mL (≈ 97.9 µM)
MIC [8]: 20 µg/mL (≈ 97.9 µM)
MIC [9]: 20 µg/mL (≈ 97.9 µM)
MIC [10]: 20 µg/mL (≈ 97.9 µM)
MIC [11]: 10 µg/mL (≈ 48.9 µM)
MIC [12]: 20 µg/mL (≈ 97.9 µM)
MIC [13]: 20 µg/mL (≈ 97.9 µM)
MIC [14]: 20 µg/mL (≈ 97.9 µM)
MIC [15]: 20 µg/mL (≈ 97.9 µM)
MIC [16]: 20 µg/mL (≈ 97.9 µM)
MIC [17]: 20 µg/mL (≈ 97.9 µM)
MIC [18]: 40 µg/mL (≈ 196 µM)
MIC [19]: 20 µg/mL (≈ 97.9 µM)
MIC [20]: 20 µg/mL (≈ 97.9 µM)
MIC [21]: 10 µg/mL (≈ 48.9 µM)
MIC [22]: 20 µg/mL (≈ 97.9 µM)
MIC [23]: 20 µg/mL (≈ 97.9 µM)
MIC [24]: 20 µg/mL (≈ 97.9 µM)
MIC [25]: 20 µg/mL (≈ 97.9 µM)
MIC [26]: 20 µg/mL (≈ 97.9 µM)
MIC [27]: 20 µg/mL (≈ 97.9 µM)
MIC [28]: 20 µg/mL (≈ 97.9 µM)
MIC [29]: 20 µg/mL (≈ 97.9 µM)
MIC [30]: 20 µg/mL (≈ 97.9 µM)
MIC [31]: 20 µg/mL (≈ 97.9 µM)
MIC [32]: 20 µg/mL (≈ 97.9 µM)
MIC [33]: 20 µg/mL (≈ 97.9 µM)
MIC [34]: 20 µg/mL (≈ 97.9 µM)
MIC [35]: 20 µg/mL (≈ 97.9 µM)
MIC [36]: 20 µg/mL (≈ 97.9 µM)
MIC [37]: 20 µg/mL (≈ 97.9 µM)
MIC [38]: 20 µg/mL (≈ 97.9 µM)
MIC [39]: 10 µg/mL (≈ 48.9 µM)
MIC [40]: 10 µg/mL (≈ 48.9 µM)
MIC [41]: 20 µg/mL (≈ 97.9 µM)
MIC [42]: 20 µg/mL (≈ 97.9 µM)
MIC [43]: 10 µg/mL (≈ 48.9 µM)
MIC [44]: 10 µg/mL (≈ 48.9 µM)

From ChEMBL document CHEMBL1629650 (2009)
